According to patent US20260297060A1, “COMPOUNDS FOR THE DEGRADATION OF MUTANT BRAF” (C4 THERAPEUTICS, INC., priority 2023, published 2026):
Like-named read-outs stand apart in the source and are kept apart here.

Assay: Pharmacokinetics after 21 days dosing in the efficacy study (plasma, tumor and brain concentrations; plasma AUC at steady state), Example 14
Type: in vivo, female BALB/c nude mice
Experimental: Agents were tested in the A375 human melanoma xenografts. Compound 26 and Compound 141 were administered to BALB/c nude mice bearing A375 tumors from PG-DO and dosed via PO twice a day (BID) or third a day (TIP) or dosed P daily (QD) from PG-D. Dabrafenib was administered to BALB/c nude mice bearing A375 tumors from PG-D1 and dosed via P daily (QD). Compound 26 was dosed at 1.5 mg/kg (QD), 2 mg/kg (TID), 3 mg/kg (BID), 6 mg/kg (QD) and 10 mg/kg (BID) for 21 days. Compound 141 was dosed at 0.75 mg/kg (BID), 1 mg/kg (TID), 1.5 mg/kg (BID), 3 mg/kg (QD) and 5 mg/kg (BID) for 21 days. Dabrafenib was dosed at 100 mg/kg for 21 days. This study was non-GLP.
The plasma samples were collected at predetermined time points for PK analysis. For non-termination plasma collection: the blood samples were collected into the 1.5 mL Eppendorf tubes containing 3 μL of 0.5 M EDTA-K2. And then the anticoagulant blood samples were centrifuged at 2,500 g at 4° C. for 15 minutes. For termination plasma collection: the mice was euthanized at predetermined time points post the treatment, the blood samples were collected into the 1.5 mL Eppendorf tubes containing 15 μL of 0.5 M EDTA-K2. And then the anticoagulant blood samples were centrifuged at 2,500 g at 4° C. for 15 minutes. The plasma samples were separated into 2 aliquots. The 1st was used for PK analysis, and the 2nd was served as backup.
The tumor samples were collected at predetermined time points for PK and WB analysis. The tumor was dissected out and split into 3 parts. The 1st part was used for PK analysis, the 2nd part was used for WB analysis and the last one was used as backup for the study. The samples were transferred into pre-labeled tubes and quickly froze in liquid nitrogen within 2 minutes after dissection. The samples were stored at −80° C. before analysis.
The brain samples were collected at predetermined time points for PK and potential WB analysis. The brain was dissected out and split into 3 parts (left brain, right brain upper and right brain lower), the left brain was used for PK, the right brain upper was used for WB and the last one was used as the backup for the study. The samples were transferred into pre-labeled tubes and quickly froze in liquid nitrogen within 2 minutes after dissection. The samples were stored at −80° C. before analysis.
The harvested plasma and tumor samples were processed for pharmacokinetics analysis by LC-MS/MS with a concentration range of 1.00-1,000 ng/mL for dabrafenib in plasma and 0.0500-50 ng/mL in tumor and brain homogenate, 5.00-10,000 ng/mL for Compound 141 in plasma and 0.200~200 ng/ml in tumor and brain homogenate. 20.0~20,000 ng/mL for Compound 26 in plasma and 0.5~500 ng/mL for Compound 26 tumor and brain homogenate.
Dabrafenib, Compound 26 and Compound 141 in female BALB/c nude mice plasma (K2-EDTA), tumor and brain homogenate were analyzed by LC-MS/MS (Triple Quad 6500+ Low Mass). Verapamil (5 ng/mL) in acetonitrile: methanol (V: V=95:5) was used as the internal standard for Dabrafenib, Compound 26 and Compound 141 in plasma. Verapamil (0.5 ng/mL) in acetonitrile: methanol (V: V=95:5) was used as the internal standard for Dabrafenib, Compound 26 and Compound 141 in tumor and brain homogenate.
An aliquot of 10 μL unknown sample, calibration standard, quality control, dilute quality control, single blank and double blank samples were added to the 96-well plate. Each sample for Dabrafenib, Compound 26 and Compound 141 in plasma (except the double blank) was quenched with 200 μL IS respectively (double blank sample was quenched with 200 μL ACN: MeOH (V: V=95:5)); each sample for Dabrafenib, Compound 26 and Compound 141 in tumor and brain(except the double blank) was quenched with 100 μL IS respectively (double blank sample was quenched with 100 μL ACN: MeOH (V: V=95:5)); and then the mixture was vortex-mixed for 5 min at 800 rpm and centrifuged for 15 min at 3220 g (4000 rpm), 4° C. […]

- Concentration in Brain (100 mg/kg p.o. QD x 21 days, 24 h, BQL: below the lower limit of quantitation): BQL^a
- concentration at 4 h (mouse, brain, po, 100 mg/kg p.o. QD x 21 days, mean ± SEM, read-out: Concentration in Brain): 3.59 ± 0.558 ng/g
- concentration at 0.25 h (mouse, plasma, po, 100 mg/kg p.o. QD x 21 days, 0.25 h, mean ± SEM): 38700 ± 2110 ng/mL
- concentration at 0.5 h (mouse, plasma, po, 100 mg/kg p.o. QD x 21 days, 0.5 h, mean ± SEM): 25700 ± 5690 ng/mL
- concentration at 1 h (mouse, plasma, po, 100 mg/kg p.o. QD x 21 days, 1 h, mean ± SEM): 3270 ± 443 ng/mL
- concentration at 2 h (mouse, plasma, po, 100 mg/kg p.o. QD x 21 days, 2 h, mean ± SEM): 444 ± 129 ng/mL
- concentration at 4 h (mouse, plasma, po, 100 mg/kg p.o. QD x 21 days, mean ± SEM, read-out: Concentration in Plasma): 54.4 ± 7.02 ng/mL
- concentration at 8 h (mouse, plasma, po, 100 mg/kg p.o. QD x 21 days, 8 h, mean ± SEM): 55.4 ± 4.19 ng/mL
- concentration at 10 h (mouse, plasma, po, 100 mg/kg p.o. QD x 21 days, 10 h, mean ± SEM): 24 ± 6.86 ng/mL
- concentration at 24 h (mouse, plasma, po, 100 mg/kg p.o. QD x 21 days, 24 h, read-out: Concentration in Plasma): 2.27 ng/mL
- AUC (mouse, plasma, po, 100 mg/kg p.o. QD × 21 days, read-out: Plasma AUC at steady state (Day 21), Average): 18100 ng·h/mL
- concentration at 4 h (mouse, tumor, po, 100 mg/kg p.o. QD x 21 days, mean ± SEM, read-out: Concentration in Tumor): 137 ± 7.51 ng/g
- concentration at 24 h (mouse, tumor, po, 100 mg/kg p.o. QD x 21 days, 24 h, mean ± SEM, read-out: Concentration in Tumor): 1.43 ± 0.191 ng/g
Compound: CC(C)(C)c1nc(-c2cccc(NS(=O)(=O)c3c(F)cccc3F)c2F)c(-c2ccnc(N)n2)s1 [Dabrafenib, dabrafenib, reference compound]
